Source: article PMC11413854, “Reversible Control of Native GluN2B-Containing NMDA Receptors with Visible Light” (ACS Chemical Neuroscience, 2024)
Where “and” joins values, the source holds several entries; their conditions need not be identical. Equal entries are not always repeated. Where two headings read alike, the source gives them in different places.

Biological target: T1, GluA1 AMPA receptors (Rattus norvegicus, UniProt P19490)
T1 construct: expressed in transfected cells; host or cells: Xenopus laevis oocytes (mRNA injection)
Assay: TEVC on Xenopus oocytes, GluA1 AMPA receptors
Type: cell-based
Conditions: for Inhibition, individual values: GluA1, single cells
From the text: We used cDNA coding for rat GluN1–1a (named GluN1 herein) (GenBank: U08261.1), rat GluN2A (GenBank: D13211.1), mouse GluN2B (GenBank: D10651.2), rat GluA1 flop (GenBank: M36418.2), and rat Myc-GluA2(Q)-flip (GenBank: AF164344.1) cloned into pcDNA3-based expression plasmids. GluK2 (GenBank: Z11548.1) corresponds to the fully RNA-edited version.[80] The GluN2B-ΔNTD construct is from ref[45] and GluN2B–N615K is from ref[81]. Single mutants GluN2B-Q110G and GluN1-L135H were from ref[19]. The GluA2 cDNA contains a Myc tag ([…]) fused between the signal peptide and the N-terminus sequences, and the GluA2 subunit is […] for its Q/R/N site (GluA2(Q)) to allow permeation of homomeric GluA2 receptors.[2] cDNAs coding for rat GluN2C (GenBank: M91563.1) and GluN2D subunits (GenBank: L31611.1) were in prK5 plasmids.
The expression of recombinant GluA1, GluA2(Q), and GluK2 receptors was obtained by oocyte injection of 50 nL of mRNAs (at 1 μg/μL). mRNAs were generated using the T7 (GluA1 and GluA2) and T3 (GluK2) mMessage mMachine transcription kits (Invitrogen) after cDNA linearization with the SacII restriction enzyme. The injected oocytes were stored in the same conditions as for NMDARs and used 72–96 h postinjection.
TEVC recordings were performed 1–3 days following injection. TEVC recordings were performed using an Oocyte Clamp amplifier OC-725 (Warner Instruments) and computer-controlled via a 1440A Digidata (Molecular Devices). Currents were sampled at 100 Hz and low-pass-filtered at 20 Hz using an 8-pole Bessel filter (900 Series, Frequency Devices Inc.). Data were collected with Clampfit 10.3. During the recording, the cells were continuously perfused with external recording Ringer solution at pH 7.3 (in mM: 100 NaCl, 0.3 BaCl2, 5 HEPES, and 2.5 KCl, pH adjustment to 7.3 by the addition of NaOH). The NMDA currents were induced by simultaneous application of L-glutamate and glycine (agonist solution) at saturating concentration (100 μM each), and DTPA (10 μM) to prevent receptor inhibition by ambient zinc (∼20 nM).[83] A control solution (100 μM glycine and 10 μM DTPA in Ringer pH 7.3) was used for washout of drug and test solutions. AMPA and kainate receptor currents were induced in the same conditions as NMDA currents (100 μM glutamate and glycine + 10 μM DTPA). Oocytes expressing GluK2 kainate receptors were treated with concanavalin A ([…], equivalent to 1.1 mg/mL) during 10 min before recording to decrease receptor desensitization. Unless notified, recordings were performed at a holding potential of −60 mV. All experiments were performed at room temperature. […]

T1 sequence (P19490 19-907): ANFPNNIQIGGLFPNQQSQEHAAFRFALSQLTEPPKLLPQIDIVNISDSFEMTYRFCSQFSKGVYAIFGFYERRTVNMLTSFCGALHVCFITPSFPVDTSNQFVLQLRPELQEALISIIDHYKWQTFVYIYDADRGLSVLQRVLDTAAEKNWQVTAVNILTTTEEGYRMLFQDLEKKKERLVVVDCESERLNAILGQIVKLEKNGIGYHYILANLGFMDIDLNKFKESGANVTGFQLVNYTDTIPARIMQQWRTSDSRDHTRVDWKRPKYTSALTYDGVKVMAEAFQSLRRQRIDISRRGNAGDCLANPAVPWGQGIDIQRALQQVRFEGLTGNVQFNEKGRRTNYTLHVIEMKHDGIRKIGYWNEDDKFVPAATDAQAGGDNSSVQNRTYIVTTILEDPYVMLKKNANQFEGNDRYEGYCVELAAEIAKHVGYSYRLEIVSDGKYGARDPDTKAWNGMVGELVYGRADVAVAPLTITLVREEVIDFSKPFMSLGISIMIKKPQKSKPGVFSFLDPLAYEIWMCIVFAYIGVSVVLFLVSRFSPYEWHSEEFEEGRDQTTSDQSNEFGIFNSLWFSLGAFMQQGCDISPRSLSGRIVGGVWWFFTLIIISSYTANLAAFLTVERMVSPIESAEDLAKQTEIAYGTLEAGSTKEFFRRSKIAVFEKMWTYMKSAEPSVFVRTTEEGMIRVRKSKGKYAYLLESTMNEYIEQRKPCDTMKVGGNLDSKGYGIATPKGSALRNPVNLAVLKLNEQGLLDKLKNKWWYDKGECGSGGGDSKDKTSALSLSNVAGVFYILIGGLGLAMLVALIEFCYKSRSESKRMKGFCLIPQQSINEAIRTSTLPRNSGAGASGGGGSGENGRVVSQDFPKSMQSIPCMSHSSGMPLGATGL

With c1ccc(/N=N/c2ccc(CCNc3ccncc3)cc2)cc1 [OptoNAM-3, (E)-N-(4-(Phenyldiazenyl)phenethyl)pyridin-4-amine] the inhibition at 10 µM (10 µM OptoNAM-3 365 nm PSS, construct GluA1, read-out: Inhibition (%)) was -6%, the “Inhibition, individual values” (10 µM OptoNAM-3 dark PSS (trans) as headed, second block) was -0.02846 and -0.1048 and -0.04691 and the “Inhibition, individual values” (10 µM OptoNAM-3 dark PSS (trans), first block) was -0.02273 and -0.0986 and -0.1111. For the same molecule, the inhibition at 10 µM (10 µM OptoNAM-3 dark PSS (trans), construct GluA1, read-out: Inhibition (%)) was -7.7%, the “inhibition of GluA1 currents” value (10 µM, dark PSS) was “no effect” and the inhibition at 10 µM (10 µM, dark PSS, read-out: inhibition of GluA1 currents) was -7.4 ± 2.7%.
